Test results published in ChEMBL document CHEMBL1128153, “Acetylcholinesterase inhibition by alkaloids of the ant's venom Monomorium minutum” (Bioorg Med Chem Lett, 1995).

Experiments:
Acetylcholinesterase = Acetylcholinesterase (Electrophorus electricus, UniProt O42275)
Description: Tested for in vitro inhibition of acetylcholinesterase

[1] = Partition coefficient (logP); assay type: physicochemical; settings: octanol/water
ant = test: Evaluated for the amount of compound present in ant's venom Monomorium minutum.; assay type: functional

Acetylcholinesterase, sequence (O42275 whole entry): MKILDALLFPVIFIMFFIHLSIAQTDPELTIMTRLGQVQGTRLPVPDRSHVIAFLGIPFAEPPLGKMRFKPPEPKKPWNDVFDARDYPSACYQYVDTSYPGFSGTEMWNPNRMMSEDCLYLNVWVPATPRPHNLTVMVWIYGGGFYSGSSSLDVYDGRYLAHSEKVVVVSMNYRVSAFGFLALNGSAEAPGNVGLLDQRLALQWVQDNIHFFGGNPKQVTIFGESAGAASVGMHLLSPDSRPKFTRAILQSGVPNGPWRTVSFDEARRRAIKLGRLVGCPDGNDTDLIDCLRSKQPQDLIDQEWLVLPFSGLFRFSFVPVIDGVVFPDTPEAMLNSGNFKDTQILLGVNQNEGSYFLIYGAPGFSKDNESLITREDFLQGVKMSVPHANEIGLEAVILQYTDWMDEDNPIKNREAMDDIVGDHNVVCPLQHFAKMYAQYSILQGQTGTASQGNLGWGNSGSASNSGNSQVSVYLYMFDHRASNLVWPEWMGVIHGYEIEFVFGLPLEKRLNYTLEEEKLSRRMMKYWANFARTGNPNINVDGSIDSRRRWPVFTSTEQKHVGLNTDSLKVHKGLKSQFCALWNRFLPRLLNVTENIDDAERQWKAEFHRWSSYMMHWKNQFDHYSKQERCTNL

SMILES: CN(C)C(=O)Oc1cccc([N+](C)(C)C)c1 [NEOSTIGMINE BROMIDE]
- Ki (Acetylcholinesterase): 1000 nM

SMILES: C=CCCCCCCCC1CCC(CCCCC=C)N1 (stereo not drawn)
- Ki (Acetylcholinesterase): 2500 nM
- logP [1]: 7.32
- Venom (ant): 29.8%

SMILES: C=CCCCCC1CCC(CCCCCCCCC)N1 (stereo not drawn)
- Ki (Acetylcholinesterase): 1500 nM
- logP [1]: 7.68
- Venom (ant): 58.7%

SMILES: C=CCCCCCCCC1=NC(CCCCC=C)CC1 (stereo not drawn)
- Ki (Acetylcholinesterase): 13000 nM
- logP [1]: 8.02
- Venom (ant): 0.2%

SMILES: C=CCCCCC1=NC(CCCCCCCCC)CC1 (stereo not drawn)
- Ki (Acetylcholinesterase): 5000 nM
- logP [1]: 8.39
- Venom (ant): 4.4%
